Results published in patent US9328083B2, “2-aminated methylene or 2-esterified methylene tanshinone derivatives, and preparation method and application thereof” (HANGZHOU BENSHENG PHARMACEUTICAL CO., LTD., priority 2011, dated 2016).
In brackets after ≈: the same amount, converted by molar mass. Each block holds one molecule with its values, some of them ahead of it.

Legend:
[1] = system: RPMI8226 (multiple myeloma); assay: MTT growth inhibition of multiple myeloma cells, 72 h; format: cell-based, human; details: Homo sapiens, RPMI 8226, 72 h; for IC50: read-out: IC50; for IC90: read-out: IC90
Method in brief: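 Viability read by MTT after 72 h at 37° C, 5% CO2: compounds from a 10 mg/mL DMSO stock were diluted in medium and added at several concentrations to 6000 RPMI8226 cells per well in 1640 medium plus 10% FBS.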

[2] = system: U87 MG (malignant glioma cell); assay: MTT growth inhibition of human solid tumor cells, 72 h; format: cell-based; details: Homo sapiens, U-87 MG, U87-MG, 72 h; for IC50: read-out: IC50; for IC90: read-out: IC90
Method in brief: (§1)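 Viability was read by MTT after 72 h of compound exposure at 37°C, 5% CO2, in cells seeded at 4000 per well and pre-grown for 24 h in DMEM high glucose plus 10% FBS. Test solutions came from a 10 mg/mL DMSO stock diluted in medium.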

[3] = system: Hep G2 (human liver cancer cell); assay: as above; format: cell-based; details: Homo sapiens, HepG2, Hep G2, 72 h; for IC50: read-out: IC50; for IC90: read-out: IC90
Method in brief: as §1

[4] = system: PANC-1 (pancreatic cancer); assay: as above; format: cell-based; details: Homo sapiens, PANC-1, 72 h; for IC50: read-out: IC50; for IC90: read-out: IC90
Method in brief: as §1

[5] = system: PC-3 (prostate cancer); assay: as above; format: cell-based; details: Homo sapiens, PC-3, 72 h; for IC50: read-out: IC50; for IC90: read-out: IC90
Method in brief: as §1

[6] = system: MG63 (osteosarcoma); assay: as above; format: cell-based; details: for IC50 / IC90: Homo sapiens, MG-63, 72 h; for IC50: read-out: IC50; for IC90: read-out: IC90
Method in brief: as §1

[7] = system: CNE (nasopharyngeal carcinoma cell); assay: as above; format: cell-based; details: Homo sapiens; for IC50: read-out: IC50; for IC90: read-out: IC90
Method in brief: as §1

[8] = system: RKO (human colon adenocarcinoma cell); assay: as above; format: cell-based; details: Homo sapiens; for IC50: read-out: IC50; for IC90: read-out: IC90
Method in brief: as §1

[9] = system: CaES-17 (esophageal cancer cell); assay: as above; format: cell-based; details: Homo sapiens, CaEs17, CaEs-17, 72 h; for IC50: read-out: IC50; for IC90: read-out: IC90
Method in brief: as §1

[10] = system: SK-OV-3 (ovarian cancer cell); assay: as above; format: cell-based; details: Homo sapiens, SK-OV-3, 72 h; for IC50: read-out: IC50; for IC90: read-out: IC90
Method in brief: as §1

[11] = system: Hep-2 (laryngeal carcinoma); assay: as above; format: cell-based; details: Homo sapiens, HEp-2, 72 h; for IC50: read-out: IC50; for IC90: read-out: IC90
Method in brief: as §1

[12] = system: Becap37 (human breast cancer cell); assay: as above; format: cell-based; details: Homo sapiens, Becap-37, 72 h; for IC50: read-out: IC50; for IC90: read-out: IC90
Method in brief: as §1

[13] = system: Hela (human cervical cancer cell); assay: as above; format: cell-based; details: Homo sapiens, HeLa, 72 h; for IC50: read-out: IC50; for IC90: read-out: IC90
Method in brief: as §1

[14] = system: A549 (human lung cancer); assay: as above; format: cell-based; details: Homo sapiens, A549, 72 h; for IC50: read-out: IC50; for IC90: read-out: IC90
Method in brief: as §1

[15] = system: MGC 803 (human gastric cancer cell); assay: as above; format: cell-based; details: Homo sapiens, MGC-803, 72 h; for IC50: read-out: IC50; for IC90: read-out: IC90
Method in brief: as §1

[16] = system: Jurkat (acute lymphoblastic leukemia, ALL); assay: MTT growth inhibition of leukemia cells, 72 h; format: cell-based, human; details: Homo sapiens, 72 h; for IC50: read-out: IC50; for IC90: read-out: IC90
Method in brief: (§2)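 6000 cells/well, RPMI-1640 + 10% FBS; compounds added day 2 (DMSO stock 10 mg/mL, diluted in medium); 72 h, 37 °C, 5% CO2; MTT read-out of viable cells.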

[17] = system: NB4 (acute promyelocytic leukemia, AML); assay: MTT growth inhibition of leukemia cells, 72 h; format: cell-based, human; details: Homo sapiens, NB4, 72 h; for IC50: read-out: IC50; for IC90: read-out: IC90
Method in brief: as §2

[18] = system: H9 (acute lymphoblastic leukemia, ALL); assay: MTT growth inhibition of leukemia cells, 72 h; format: cell-based, human; details: Homo sapiens, H9, 72 h; for IC50: read-out: IC50; for IC90: read-out: IC90
Method in brief: as §2

[19] = system: K562/adr (drug-resistant, chronic myeloid leukemia, CML); assay: MTT growth inhibition of leukemia cells, 72 h; format: cell-based, human; details: Homo sapiens, K562/Adr; for IC50: read-out: IC50; for IC90: read-out: IC90
Method in brief: as §2

[20] = system: Kasumi-1 (acute myeloid leukemia M2 type, AML-M2); assay: MTT growth inhibition of leukemia cells, 72 h; format: cell-based, human; details: Homo sapiens, Kasumi-1, 72 h; for IC50: read-out: IC50; for IC90: read-out: IC90
Method in brief: as §2

IC50 [1]: 8.4 µg/mL (≈ 23.2 µM)
IC90 [1]: > 16 µg/mL
IC50 [2]: > 16 µg/mL
IC90 [2]: > 16 µg/mL
IC50 [3]: 10.6 µg/mL (≈ 29.2 µM)
IC90 [3]: > 16 µg/mL
IC50 [4]: 3.08 µg/mL (≈ 8.5 µM)
IC90 [4]: 13.3 µg/mL (≈ 36.8 µM)
IC50 [5]: 14.4 µg/mL (≈ 39.8 µM)
IC90 [5]: > 16 µg/mL
IC50 [6]: 4.86 µg/mL (≈ 13.4 µM)
IC90 [6]: > 16 µg/mL
IC50 [7]: 8.5 µg/mL (≈ 23.5 µM)
IC90 [7]: > 16 µg/mL
IC50 [8]: 2.77 µg/mL (≈ 7.64 µM)
IC90 [8]: > 16 µg/mL
IC50 [9]: 15.5 µg/mL (≈ 42.7 µM)
IC90 [9]: > 16 µg/mL
IC50 [10]: > 16 µg/mL
IC90 [10]: > 16 µg/mL
IC50 [11]: 6.82 µg/mL (≈ 18.8 µM)
IC90 [11]: > 16 µg/mL
IC50 [12]: 14.2 µg/mL (≈ 39.3 µM)
IC90 [12]: > 16 µg/mL
IC50 [13]: 5 µg/mL (≈ 13.8 µM)
IC90 [13]: > 16 µg/mL
IC50 [14]: 10.6 µg/mL (≈ 29.1 µM)
IC90 [14]: 24.2 µg/mL (≈ 66.9 µM)
IC50 [15]: 9.22 µg/mL (≈ 25.4 µM)
IC90 [15]: 23.2 µg/mL (≈ 64.2 µM)
IC50 [16]: 5.54 µg/mL (≈ 15.3 µM)
IC90 [16]: 17.1 µg/mL (≈ 47 µM)
IC50 [17]: 1.93 µg/mL (≈ 5.33 µM)
IC90 [17]: 9.65 µg/mL (≈ 26.6 µM)
IC50 [18]: 6.4 µg/mL (≈ 17.7 µM)
IC90 [18]: > 16 µg/mL
IC50 [19]: 2.3 µg/mL (≈ 6.35 µM)
IC90 [19]: 6.61 µg/mL (≈ 18.2 µM)
IC50 [20]: 2.35 µg/mL (≈ 6.48 µM)
IC90 [20]: 7.79 µg/mL (≈ 21.5 µM)
SMILES: CCC(=O)OCc1oc2c(c1C)C(=O)C(=O)c1c-2ccc2c(C)cccc12 [BS-TA-A03]

IC50 [1]: 0.52 µg/mL (≈ 1.27 µM)
IC90 [1]: 2.9 µg/mL (≈ 7.08 µM)
IC50 [2]: 0.74 µg/mL (≈ 1.81 µM)
IC90 [2]: 8 µg/mL (≈ 19.5 µM)
IC50 [3]: 1.25 µg/mL (≈ 3.05 µM)
IC90 [3]: 9.41 µg/mL (≈ 23 µM)
IC50 [4]: 0.81 µg/mL (≈ 1.98 µM)
IC90 [4]: 16 µg/mL (≈ 39.1 µM)
IC50 [5]: 1.83 µg/mL (≈ 4.47 µM)
IC90 [5]: 16 µg/mL (≈ 39.1 µM)
IC50 [6]: 0.38 µg/mL (≈ 0.928 µM)
IC90 [6]: 14.9 µg/mL (≈ 36.5 µM)
IC50 [7]: 0.817 µg/mL (≈ 2 µM)
IC90 [7]: 39 µg/mL (≈ 95.2 µM)
IC50 [8]: 0.17 µg/mL (≈ 0.415 µM)
IC90 [8]: 16 µg/mL (≈ 39.1 µM)
IC50 [9]: 0.97 µg/mL (≈ 2.37 µM)
IC90 [9]: 3.81 µg/mL (≈ 9.3 µM)
IC50 [10]: 5.41 µg/mL (≈ 13.2 µM)
IC90 [10]: 22.8 µg/mL (≈ 55.8 µM)
IC50 [11]: 0.88 µg/mL (≈ 2.15 µM)
IC90 [11]: 29.6 µg/mL (≈ 72.3 µM)
IC50 [12]: 0.43 µg/mL (≈ 1.05 µM)
IC90 [12]: 3.73 µg/mL (≈ 9.11 µM)
IC50 [13]: 1.31 µg/mL (≈ 3.2 µM)
IC90 [13]: 16.2 µg/mL (≈ 39.6 µM)
IC50 [14]: 1.7 µg/mL (≈ 4.15 µM)
IC90 [14]: 17 µg/mL (≈ 41.5 µM)
IC50 [15]: 0.79 µg/mL (≈ 1.93 µM)
IC90 [15]: 7.25 µg/mL (≈ 17.7 µM)
IC50 [16]: 0.96 µg/mL (≈ 2.34 µM)
IC90 [16]: 5.3 µg/mL (≈ 12.9 µM)
IC50 [17]: 0.26 µg/mL (≈ 0.635 µM)
IC90 [17]: 0.96 µg/mL (≈ 2.34 µM)
IC50 [18]: 0.7 µg/mL (≈ 1.71 µM)
IC90 [18]: 2.3 µg/mL (≈ 5.62 µM)
IC50 [19]: 1.13 µg/mL (≈ 2.76 µM)
IC90 [19]: 2.95 µg/mL (≈ 7.2 µM)
IC50 [20]: 0.66 µg/mL (≈ 1.61 µM)
IC90 [20]: 1.91 µg/mL (≈ 4.66 µM)
SMILES: Cc1c(CN(C)Cc2ccccc2)oc2c1C(=O)C(=O)c1c-2ccc2c(C)cccc12 [BS-TA-B01]
improvement of anti-MG63 activity as compared with tanshinone I ([6]; MG63, vs tanshinone I): ~3 fold

IC50 [1]: 2.83 µg/mL (≈ 8.15 µM)
IC90 [1]: 5.87 µg/mL (≈ 16.9 µM)
IC50 [2]: 2.36 µg/mL (≈ 6.79 µM)
IC90 [2]: 3.85 µg/mL (≈ 11.1 µM)
IC50 [3]: 4.69 µg/mL (≈ 13.5 µM)
IC90 [3]: 22.1 µg/mL (≈ 63.6 µM)
IC50 [4]: 3.14 µg/mL (≈ 9.04 µM)
IC90 [4]: 16 µg/mL (≈ 46.1 µM)
IC50 [5]: 5.39 µg/mL (≈ 15.5 µM)
IC90 [5]: 12.3 µg/mL (≈ 35.5 µM)
IC50 [6]: 4.53 µg/mL (≈ 13 µM)
IC90 [6]: 13 µg/mL (≈ 37.4 µM)
IC50 [7]: 8.8 µg/mL (≈ 25.3 µM)
IC90 [7]: 43.6 µg/mL (≈ 125 µM)
IC50 [8]: 0.49 µg/mL (≈ 1.41 µM)
IC90 [8]: 14.6 µg/mL (≈ 41.9 µM)
IC50 [9]: 5.55 µg/mL (≈ 16 µM)
IC90 [9]: 10.3 µg/mL (≈ 29.8 µM)
IC50 [10]: 12.8 µg/mL (≈ 36.9 µM)
IC90 [10]: 21.7 µg/mL (≈ 62.4 µM)
IC50 [11]: 6.11 µg/mL (≈ 17.6 µM)
IC90 [11]: 18.5 µg/mL (≈ 53.1 µM)
IC50 [12]: 4 µg/mL (≈ 11.5 µM)
IC90 [12]: 9.37 µg/mL (≈ 27 µM)
IC50 [13]: 3.99 µg/mL (≈ 11.5 µM)
IC90 [13]: 11 µg/mL (≈ 31.5 µM)
IC50 [14]: 0.8 µg/mL (≈ 2.3 µM)
IC90 [14]: 4.43 µg/mL (≈ 12.8 µM)
IC50 [15]: 3.86 µg/mL (≈ 11.1 µM)
IC90 [15]: 7.99 µg/mL (≈ 23 µM)
IC50 [16]: 2.36 µg/mL (≈ 6.79 µM)
IC90 [16]: 6.15 µg/mL (≈ 17.7 µM)
IC50 [17]: 0.92 µg/mL (≈ 2.65 µM)
IC90 [17]: 3.01 µg/mL (≈ 8.66 µM)
IC50 [18]: 3.3 µg/mL (≈ 9.5 µM)
IC90 [18]: 6.8 µg/mL (≈ 19.6 µM)
IC50 [19]: 1.22 µg/mL (≈ 3.51 µM)
IC90 [19]: 2.69 µg/mL (≈ 7.74 µM)
IC50 [20]: 0.81 µg/mL (≈ 2.33 µM)
IC90 [20]: 2 µg/mL (≈ 5.76 µM)
SMILES: CCN(C)Cc1oc2c(c1C)C(=O)C(=O)c1c-2ccc2c(C)cccc12 [BS-TA-B03]
